This note sets out measurements from patent US8329640B2, “Peptides with improved properties having the biological activity of vasoactive intestinal peptide (VIP) and their use for the treatment of lung diseases” (priority 2007, dated 2012).

For series [1], the system named is PASMC. Put plainly: cAMP measurement in PASMC (cyclic AMP ELISA). It is filed as cell-based. The following applies: for cAMP +/− SD: 20 min; for cyclic AMP content of PASMC, effect in words: analogues compared with VIP. As for the experimental part:
Effects of VIP and the peptides according to the invention are mediated by specific G-protein coupled receptors. Three distinct receptor subtypes, with differing affinity for the peptides, have been cloned and characterized as receptors 1 and 2 (VPAC1 and VPAC2) and pituitary adenylate cyclase activating polypeptide receptor (PAC1). The secondary messenger is cyclic adenosine mono phosphate (CAMP). […] Cells derived from pulmonary artery (PASMC) were seeded in 24 well plates and cultured in DMEM containing 10% fetal calf serum (Gibco lifesciences, Karlsruhe), Penicillin (Gibco lifesciences, Karlsruhe, 100 U/ml) Streptomycin (Gibco lifesciences, Karlsruhe, 100 U/ml) to confluency. […] The incubation is stopped by rinsing cells with PBS and immediate lysis of cells with HCl (0.1N) containing 3-isobutyl 1-methyl xanthine (500 μM) to block further hydrolysis of cAMP. Lysed cells were centrifuged and the supernatants assayed for cAMP using an commercially available cyclic AMP ELISA (Assay Designs, Inc., Michigan, distribution by Bio Trend, Köln).
In general terms: An ELISA detects its analyte on a solid surface through an enzyme-linked reagent.

The test system of series [2] is COPD patients. Description: Phase II double-blind, randomized, placebo-controlled clinical trial of inhaled VIP in COPD. Conditions: VIP (n = 15). As for the experimental part: Chronic obstructive pulmonary disease (COPD) is characterised by progressive airflow limitation associated with chronic inflammation. […] The efficacy and safety of VIP in patients was assessed with moderate to severe COPD.
The present double-blind, randomized, placebo-controlled study was undertaken in an outpatient setting. COPD patients (n=34) were randomly assigned VIP 50 μg (n=17), or placebo (n=17), given per inhalation, 4 times daily for 12 weeks. VIP serum concentration was measured in all patients. Primary outcomes were health-related quality of life and exercise capacity. Secondary outcomes included the lung function parameters and COPD exacerbations.

Series [3] concerns monocytes after LPS stimulation. Description: Nitrite (NO) production by monocytes/macrophages after LPS stimulation. It counts as cell-based, human. Conditions: for Nitrit +/− SD: LPS 100 nM + peptide 100 nM, 24 hours, no LPS 48, LPS alone 75; for anti-inflammatory response (NO production) on simultaneous incubation with LPS: after 24 hours, analogues compared with VIP. As for the experimental part:
Peripheral blood mononuclear cells were isolated from whole venous blood from 12 stable COPD patients and 12 healthy probands by Ficoll density gradient centrifugation. Monocytes were differentiated in RPMI-1640 medium supplemented with 5% FCS, antibiotics and 10^−8 M 1,25-dihydroxycholecalciferol (Sigma) in a humidified atmosphere with 5% CO2 at 37° C.
For infection simulation, macrophage stimulation and experimental in vivo treatment the differentiated cells were incubated either with LPS, with LPS and SEQ ID No.:1 (VIP) or SEQ ID No.:2 (A-15) or SEQ ID No.:3 (A-18), or with medium alone for control.
To test the hypothesis whether or not the macrophages utilize the VIP-signaling pathway to modulate and limit the immune response, the inflammation reaction in vitro was stimulated and NO (produced by iNOS) production by the cells was measured under inflammation and under in vitro therapy with VIP and the peptides according to the invention (SEQ ID Nos 2 and 3). NOS increased dramatically by LPS after 24 hours. […] This anti-inflammatory response was better by both VIP-analogues according to SEQ ID Nos. 2 and 3.

Where “and” joins values, the source holds several entries; their conditions need not be identical. Identical values can stand only once. No end group written: not given here.

Regarding `C=C[C@@]1(C)CC(=O)[C@]2(O)[C@@]3(C)[C@@H](O)CCC(C)(C)[C@@H]3[C@H](O)[C@H](OC(C)=O)[C@@]2(C)O1` [Forskolin, reference compound], the “cAMP +/− SD” value in series [1] (Forskolin 10 μM + IBMX 500 μM) was 41.10 pmol/mL and 47.81 pmol/mL and 58.00 pmol/mL.
With `CC(C)Cn1c(=O)n(C)c(=O)c2[nH]cnc21` [IBMX, 3-isobutyl 1-methyl xanthine, reference compound], in series [1] (IBMX 500 μM alone), the “cAMP +/− SD” value was 16.37 pmol/mL and 17.16 pmol/mL and 15.91 pmol/mL.
Regarding `CC[C@H](C)[C@H](NC(=O)[C@H](CO)NC(=O)[C@H](CC(N)=O)NC(=O)[C@H](CC(C)C)NC(=O)[C@H](Cc1ccc(O)cc1)NC(=O)[C@H](CCCCN)NC(=O)[C@H](CCCCN)NC(=O)[C@@H](NC(=O)[C@H](C)NC(=O)[C@H](CCSC)NC(=O)[C@H](CCC(N)=O)NC(=O)[C@H](CCCCN)NC(=O)[C@H](CCCN=C(N)N)NC(=O)[C@H](CC(C)C)NC(=O)[C@H](CCCN=C(N)N)NC(=O)[C@@H](NC(=O)[C@H](Cc1ccc(O)cc1)NC(=O)[C@H](CC(N)=O)NC(=O)[C@H](CC(=O)O)NC(=O)[C@@H](NC(=O)[C@H](Cc1ccccc1)NC(=O)[C@@H](NC(=O)[C@H](C)NC(=O)[C@H](CC(=O)O)NC(=O)[C@H](CO)NC(=O)[C@@H](N)Cc1c[nH]cn1)C(C)C)[C@@H](C)O)[C@@H](C)O)C(C)C)C(=O)N[C@@H](CC(C)C)C(=O)N[C@@H](CC(N)=O)C(N)=O` [VIP], in series [2], the “Adverse events: COPD exacerbation, number” value was found to be 8; the “Adverse events: COPD exacerbation, percent” value was “(53.3%)”; the “Adverse events: Diarrhoea NOS, number” value amounted to 0; the “Adverse events: Diarrhoea NOS, percent” value is “(0%)”. In series [2], the “Adverse events: Nasopharyngitis, number” value was 0; the “Adverse events: Nasopharyngitis, percent” value is recorded as “(0%)”; the “Adverse events: Nausea, number” value came to 0; the “Adverse events: Nausea, percent” value was “(0%)”. In addition, in series [2], the “Adverse events: Upper respiratory tract infection, number” value is given as 1 and the “Adverse events: Upper respiratory tract infection, percent” value is reported as “(6.7%)”.
“His (Ac)-Ser-Asp-Ala-Val-Phe-Thr-Asp-Asn-Tyr-Thr-Arg-Leu-Arg-Lys-Gln-Met (O)-Ala-Val-Lys-Lys-Tyr-Leu-Asn-Ser-Ile-Leu-Asn [Pep - 15]”: the “Nitrit +/− SD” value in series [3] stood at 16 µmol. Moreover, in series [3], the “anti-inflammatory response (NO production) on simultaneous incubation with LPS” value is on record as “better”. Besides, the “cyclic AMP content of PASMC, effect in words” value in series [1] is “Higher increase”. Moreover, the “cAMP +/− SD” value in series [1] (peptide 1 nM + IBMX 500 μM) came out at 26.45 pmol/mL; in series [1] (peptide 1 nM, without IBMX) it was 13.30 pmol/mL; in series [1] (peptide 10 nM + IBMX 500 μM) it was 27.00 pmol/mL; in series [1] (peptide 10 nM, without IBMX), 16.30 pmol/mL; in series [1] (peptide 100 nM + IBMX 500 μM) it was 36.67 pmol/mL; in series [1] (peptide 100 nM, without IBMX) it was 23.30 pmol/mL.
Turning to “His (Ac)-Ser-Asp-Ala-Val-Phe-Thr-Asp-Asn-Tyr-Thr-Arg-Leu-Arg-Lys-Gln-Met-Ala-Val-Lys-Lys-Tyr-Leu-Asn-Ser-Val-Leu-Asn ({Ac-H2N}-SDAVFTDNYTRLRKQMAVKKYLNSVLN; not fully specified (residue 16); printed as His (Ac)-Ser-Asp-Ala-Val-Phe-Thr-Asp-Asn-Tyr-Thr-Arg-Leu-Arg-Lys-Gln-Met-Ala-Val-Lys-Lys-Tyr-Leu-Asn-Ser-Val-Leu-Asn) [Pep - 18]”, the “Nitrit +/− SD” value in series [3] turned out to be 19 µmol. In series [3], the “anti-inflammatory response (NO production) on simultaneous incubation with LPS” value is reported as “better”. Moreover, in series [1], the “cyclic AMP content of PASMC, effect in words” value is “Higher increase”. Also, the “cAMP +/− SD” value in series [1] (peptide 1 nM + IBMX 500 μM) came out at 36.66 pmol/mL; in series [1] (peptide 1 nM, without IBMX), 14.83 pmol/mL; in series [1] (peptide 10 nM + IBMX 500 μM) it was 37.00 pmol/mL; in series [1] (peptide 10 nM, without IBMX), 19.45 pmol/mL; in series [1] (peptide 100 nM + IBMX 500 μM), 46.42 pmol/mL; in series [1] (peptide 100 nM, without IBMX), 28.43 pmol/mL.
